Values quoted from earlier work as cited in patent US11779591B2, “Compositions containing decitabine, 5azacytidine and tetrahydrouridine and uses thereof” (Epidestiny, Inc., priority 2015, dated 2023).

Conditions: rapid deamination by CDA

SMILES: Nc1ccn([C@@H]2O[C@H](CO)[C@@H](O)[C@@H]2[18F])c(=O)n1 [FAC, 1-(2′-deoxy-2′-[18F]-fluoro-β-D-arabinofuranosyl)cytosine]
- distribution into solid tissues such as the liver and kidneys: did not adequately distribute into solid tissues
